Reference: ChEMBL document CHEMBL3217544, “Evaluation of two cyclic di-peptides as inhibitors of CCL2 induced chemotaxis” (Medchemcomm, 2013)
Activity calls are given as the source filed them. No cut-off for these calls is given here.

Key:
[1] = target: C-C motif chemokine 2 (Homo sapiens) (UniProt P13500); test: Inhibition of CCL2 in human THP1 cells assessed as reduction of cell migration into TNFalpha/IFNgamma-stimulated HMEC-1 cells at 50 uM after 4 hrs; type: cell-based; settings: THP-1
[2] = target: C-C motif chemokine 2 (Homo sapiens) (UniProt P13500); test: Inhibition of CCL2 in human THP1 cells assessed as effect on level of ERK1/2 phosphorylation at 50 uM after 5 mins by Western blot analysis; type: cell-based; settings: THP-1
[3] = target: C-C motif chemokine 2 (Homo sapiens) (UniProt P13500); test: Inhibition of CCL2 in human THP1 cells assessed as reduction of cell migration at 100 uM after 3 hrs; type: cell-based; settings: THP-1
[4] = target: C-C motif chemokine 2 (Homo sapiens) (UniProt P13500); test: Inhibition of CCL2 in human THP1 cells assessed as reduction of cell migration at 50 uM after 3 hrs; type: cell-based; settings: THP-1
[5] = target: C-C motif chemokine 2 (Homo sapiens) (UniProt P13500); test: Inhibition of CCL2 in human PBMC assessed as reduction of cell migration into TNFalpha/IFNgamma-stimulated HMEC-1 cells at 50 uM after 4 hrs; type: cell-based
[6] = target: T1, C-C motif chemokine 5 (Homo sapiens) (UniProt P13501); test: Inhibition of CCL5 in human THP1 cells assessed as reduction of cell migration at 50 uM after 3 hrs; type: cell-based; settings: THP-1
T1 sequence (whole entry): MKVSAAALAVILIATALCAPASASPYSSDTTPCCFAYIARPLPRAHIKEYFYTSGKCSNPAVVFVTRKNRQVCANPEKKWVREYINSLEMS

[7] = target: C-C motif chemokine 7 (Homo sapiens) (UniProt P80098); test: Inhibition of CCL7 in human THP1 cells assessed as reduction of cell migration at 50 uM after 3 hrs; type: cell-based; settings: THP-1
[8] = target: C-C motif chemokine 2 (Homo sapiens) (UniProt P13500); test: Inhibition of CCL2 in human PBMC assessed as reduction of cell adhesion to VCAM1-Fc at 50 uM by flow based adhesion assay

C-C motif chemokine 2 (Homo sapiens), sequence (P13500 24-99 limits assumed): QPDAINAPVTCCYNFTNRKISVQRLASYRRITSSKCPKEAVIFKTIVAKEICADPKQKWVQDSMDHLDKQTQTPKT
C-C motif chemokine 7 (Homo sapiens), sequence (P80098 whole entry): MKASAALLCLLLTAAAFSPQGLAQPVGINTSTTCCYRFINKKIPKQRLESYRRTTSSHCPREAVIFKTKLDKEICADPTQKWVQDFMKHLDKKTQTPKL

Structure (SMILES)	inhibition [1]	inhibition [2]	inhibition [3]	inhibition [4]	inhibition [5]	inhibition [6]	inhibition [7]	inhibition [8]
O=C1N[C@@H](Cc2ccccc2)C(=O)N2CCC[C@@H]12	50%	inactive	Active	Active	Active	–	–	–
O=C1N[C@@H](Cc2ccc(F)cc2)C(=O)N2CCC[C@@H]12	70%	inactive	Active	40%	Active	inactive	inactive	35%
